Marks after values point to notes of the source that are not given here.
Tests used:
[1] = system: Splenic cells of the mice; test: Concavalin A-stimulated proliferation of splenic cells (3H-thymidine); assay type: cell-based, Balb/c mice; conditions: 48 h, control 61467
Method: The biological effect of the D-iGlu-D-Trp (iDD) was studied in Balb/c mice. […] The preparation under study was added at the beginning of the culture. Concavalin A was used as a mitogen, in a final concentration of 2 μg per well. The plates were incubated at 37° C. and in 5% CO2 for 48 h. 3H-thymidine was incorporated into the cells in the amount of […], 24 h prior to the end of the culture. Proliferation of the cells was measured with the use of a scintillation c-counter and expressed in counts per minute (CPM).

[2] = system: Intact bone marrow cells (hemopoietic stem cells); test: Spleen colony formation after in vitro treatment of intact bone marrow cells; assay type: cell-based, mice; conditions: for Colony count: Table 4, control 9,0 ± 0,6
Method: The effect of peptides of the present invention on a population of hemopoietic progenitors was studied by testing for colony formation by hemopoietic stem cells in spleens of irradiated mice.
Intact bone marrow cells were incubated at 37° C. for 1 hour with different concentrations of the peptide ranging from […]/ml. The suspension was injected to lethally irradiated recipient mice. After 8 days the animals were killed and spleen colonies were counted.
The treatment was carried out as described above in Example 4(a).

CFU-S in S-phase = test: Thymidine suicide test on boosted (4 Gy) bone marrow; assay type: in vivo, mice; conditions: for Average colony count: 4 Gy, per 10^5 injected bone marrow cells; for % CFU-S in S-phase: irradiation alone 55,0, intact control 10,5
Method: The mechanism of the inhibiting effect of the peptide on hemopoiesis was studied using the “thymidine suicide” test. The method provides an accurate measurement of the percentage of dividing cells (in the S-phase of the cell cycle). A bone marrow suspension is incubated with 3H-thymidine, which kills cells in the S-phase.
The first series of experiments investigated the effect of the peptide on CFU-S proliferation. Such an assay can not be done with intact marrow since the progenitors proliferate very poorly (0 to 15% in a cycle) in intact bone marrow. Consequently, as a source of CFU-S, “boosted” bone marrow was used containing at least 40% proliferating cells. “Boosted” bone marrow was obtained from mouse bone marrow on the 7th day following radiation with a dose of 4 Gy. Donor mice were irradiated with this dose and 5 or 6 days later they received iDD. On day 7 following the irradiation, the bone marrow was examined for the percentage of dividing cells, i.e. the iDD treatment lasted 1 or 2 days. According to the results obtained, when injected two days before the extraction of bone marrow, the peptide inhibited the proliferation so that the percentage of dividing cells was even lower than in intact subjects. When the peptide was injected one day before bone marrow was taken, no effect was observed (Table 7).
Table 7 illustrates the effect of the peptide on cell proliferation in irradiated (4 Gy) bone marrow.

[3] = system: caryocytes in femoral marrow; test: Reconstitution of caryocyte numbers in femoral marrow after 4 Gy; assay type: in vivo, mice; conditions: 10 μg/kg IP 2 days before 4 Gy
Method: The reconstitution of caryocyte numbers and that of hemopoietic progenitors was studied in femoral marrow after irradiation in the dose of 4 Gy and the peptide injection. The test was performed in 12 groups of mice, 6 animals each, and lasted 14 days. Intraperitoneal injections of the peptide in a dose of 10 μg/kg were made 1 day and 2 days before the irradiation.

[4] = system: lethally irradiated recipient mice; test: State of hemopoiesis after transplantation of allogenic bone marrow; assay type: in vivo; conditions: for Caryocytes in blood: control 1,7 + 0,3; for Lymphocytes, %: control 3
Method: In a series of experiments, bone marrow cells (6 million) of one of the parents were transplanted to lethally irradiated recipient mice which were hybrids of the first generation. […] Generally, weight loss is observed and there is a small percent of deaths during the 42-day study.
A day after the bone marrow transplantation, test recipients began to receive therapy. Three schemes of therapy were used: (1) iDD, 10 μg/kg, ip, for 5 days running, with 2-day intervals, for 6 weeks (K+iDD); (2) before transplantation, bone marrow transplants were treated with iDD in vitro for 1 hour at 37° C., 0.2 jig per 2 x 10^6 cells, without […] treatment with the preparation (iDD); and (3) bone marrow was pretreated in vitro as described in scheme 2, followed by iDD therapy as in scheme 1 (iDD+iDD). Control subjects were mice that were transplanted with the bone marrow without any further therapy. These animals received ip injections of the solvent according to the same schedule.

[5] = system: mixed lymphocyte culture (MLC); test: Mixed lymphocyte culture (MLC) proliferation; assay type: cell-based, mice
Method: The influence of the peptides of the invention on the proliferation of a mixed lymphocyte culture (MLC) was studied. The MLC experimental system is an in vitro analogue of the GVHD reaction.
Donor spleen cells from C57B1 mice ([…]) were injected into recipient (CBA×C57B1) F1 mice. Bone marrow was removed from the recipient and cultured for 4 days. The cultured cells were separated into 3 test groups, one group was treated with iDD, one with the L-peptide H-Ile-Glu-Trp-OH and one was a control. Each test peptide was added in various concentrations. Each determination was done in triplicate. ^3H-thymidine was added to each culture for 16 hours and the index of the proliferation of the cells was calculated.

[6] = system: patients with cytopenias of immune origin; test: Clinical study: tolerability; assay type: in vivo
Method: The peptide iDD was given to patients with cytopenias of immune origin and its effect on hemopoietic status was assessed using a number of immunological tests characterising both humoral and cellular immunity.
The iDD was administered 0.1 mg in a 1 ml dose intranasally (once or twice in divided doses) for 5 days. The regime was repeated after a two week interval. For patients receiving steroids and cytostatics, iDD was administered during the therapy or before the cytostatic treatment.

[7] = iDD + iDD: in vitro pretreatment and iDD therapy
[8] = iDD: transplant treated in vitro only

H-D-iGlu-D-Trp-OH [iDD]
CPMI (proliferation, 3H-thymidine) ([1]; Preparation dose 1 μcg/ml): 68594 CPM | CPMI (proliferation, 3H-thymidine) ([1]; Preparation dose 5 μcg/ml): 63428 CPM | CPMI (proliferation, 3H-thymidine) ([1]; Preparation dose 10 μcg/ml): 20043 CPM | CPMI (proliferation, 3H-thymidine) ([1]; Preparation dose 20 μcg/ml): 13222 CPM | Decrease of number of spleen colonies ([2]; Table 4, in the presence of the peptide): more than 50% | Colony count ([2]; peptide dose 0,1 μg/ml, no thymocytes): 4,4 ± 0,5 | Colony count ([2]; peptide dose 0,02 μg/ml, no thymocytes): 3,6 ± 0,5 | Colony count ([2]; peptide dose 1,0 μg/ml, no thymocytes): 4,3 ± 0,3 | Colony count ([2]; peptide dose 10,0 μg/ml, no thymocytes): 4,3 ± 0,1 | Colony count ([2]; peptide dose 10,0 μg/ml, with thymocytes 2 × 10^7 cells): 8,7 ± 0,4 | Colony count ([2]; peptide dose 20,0 μg/ml, no thymocytes): 3,9 ± 0,4 | Average colony count (CFU-S in S-phase; iDD 1 day before marrow extraction, + 3H): 5,8 ± 0,5 | Average colony count (CFU-S in S-phase; iDD 1 day before marrow extraction, without 3H): 8,3 ± 0,4 | % CFU-S in S-phase (CFU-S in S-phase; iDD 1 day): 50,6% | Average colony count (CFU-S in S-phase; iDD 2 days before marrow extraction, + 3H): 2,8 ± 0,2 | Average colony count (CFU-S in S-phase; iDD 2 days before marrow extraction, without 3H): 3,5 ± 0,2 | % CFU-S in S-phase (CFU-S in S-phase; iDD 2 days): 5,8% | Caryocyte count ([3]; 4 days after irradiation, 4 Gy alone 9,0 ± 0,3): 12,8 ± 0,9 × 10^6 | Caryocyte count ([3]; 7 days after irradiation, 4 Gy alone 10,6 ± 0,8): 21,3 ± 2,1 × 10^6 | Caryocyte count ([3]; 11 days after irradiation, 4 Gy alone 17,0 ± 0,6): 17,3 ± 1,0 × 10^6 | Caryocyte count ([3]; 14 days after irradiation, 4 Gy alone 17,0 ± 1,2): 20,5 ± 0,5 × 10^6 | Caryocytes in blood ([4]; K+ iDD: iDD 10 μg/kg ip, 6 weeks, intact 5,4 + 1,0): 3,8 + 0,3 thousand/μl | Lymphocytes, % ([4]; K+ iDD: iDD 10 μg/kg ip, 6 weeks, intact 43): 19% | Caryocytes in blood [4, 7]: 5,2 + 0,6* thousand/μl | Lymphocytes, % [4, 7]: 40* % | Caryocytes in blood [4, 8]: 4,2 + 0,3 thousand/μl | Lymphocytes, % [4, 8]: 21,5% | Increase of lymphocyte count versus control ([4]; schemes K+iDD and iDD): 6-7 times | Effect on MLC when H-Ile-Glu-Trp-OH and iDD added in equal concentrations ([5]; both peptides in equal concentrations): the effect of iDD was predominant | Depression of the proliferation MLC ([5]; concentrations of 10 and 20 μg/ml, FIG. 1): ~50% | Dynamics of biochemical indices ([6]; before and after 1-3 treatment courses): no changes | Somatic status (physical examinations) ([6]; before and after the treatment): no changes | Changes in AP dynamics and ECG ([6]; iDD courses): not observed | Toxic and adverse reactions ([6]; prolonged administration (5-6 courses), 0.1 mg intranasally for 5 days): no toxic reactions

— US6410515B1, “Peptide, a method for its preparation and a pharmaceutical composition containing the peptide” (Immunotech Developments Inc., priority 1995, dated 2002)
